# Experimental data as given in US10023615B2, “Efficient transport into white blood cells” (priority 2008, dated 2018).
# Ends that are not written are not given here.
# Experiments:
# [1] = Tissue distribution of C14 radiolabeled D-TAT-tagged peptides; assay type: in vivo, mouse; details: 1 mg/kg s.c., i.v., i.p.; 72 hours after injection
# Description: Mice were treated via three different routes of administration (s.c., i.v., i.p.) with radiolabeled peptides with C^14 (1 mg/kg). Animals were sacrificed 72 hours after injection and processed for immunoradiography. […] This illustrates that the transporter D-TAT is responsible for the tissue distribution.
# [2] = system: TC-3 cells; assay: Inhibition of IL-1 induced pancreatic beta-cell death; assay type: cell-based; details: 1 μM single addition, IL-1 10 ng/ml, two days
# Description: Inhibition of IL-1 induced pancreatic beta-cell death by the D-TAT-IB1(s) peptide was analyzed. TC-3 cells were incubated for 30 minutes with one single addition of the indicated peptides (1, μM), then IL-1 (10 ng/ml) was added.
# Apoptotic cells were then counted after two days of incubation with IL-1 by use of Propidium Iodide and Hoechst 33342 nuclear staining. A minimum of 1,000 cells were counted for each experiment.
# Long term inhibition of IL-1P induced cell-death by the D-TAT-IB1 peptide was also analyzed. TC-3 cells were incubated for 30 minutes with one single addition of the indicated peptides (1 μM), then IL-1 (10 ng/ml) was added, followed by addition of the cytokine every two days. Apoptotic cells were then counted after 15 days of incubation with IL-1 by use of propidium iodide and Hoechst 33342 nuclear staining. […] A minimum of 1.000 cells were counted for each experiment.
# [3] = system: db/db mice; assay: db/db mice model of type 2 diabetes, chronic treatment; assay type: in vivo, mouse
# From the text: The aim was to determine the activity of IB(s) peptides and all-D retro-inverso IB(s) peptides and variants thereof in the treatment of Diabetes Type 2, particularly to determine the effect of chronic treatment with XG-102 (SEQ ID NO: 233) in the db/db mice model of type 2 diabetes by evaluating fasting blood glucose levels every third day (28 days)
# a) Materials and Methods • i) Animals • A total of twenty (20) male db/db mice (8 weeks old) were obtained from Charles River (Germany). Upon arrival, animals were group housed (n=6-7/group) and offered regular rodent chow (Altromin standard #1324 chow; C. Petersen, Ringsted, Denmark) and water ad libitum unless otherwise stated. • The mice were housed under a 12:12 L/D cycle (lights on at 4:00 and lights off at 16:00) and in temperature and humidity controlled rooms. • ii) Groups and Randomization • On day −4, mice were randomized according to blood glucose level (fasted; blood glucose measured on Biosen S line analyzer (EKF diagnostic, Germany) to participate in one of the following drug treatment groups (n=6): • 1) Vehicle control, S.C. (physiological saline) • 2) XG-102 (SEQ ID NO: 233); 1 mg/kg; s.c. • 3) XG-102 (SEQ ID NO: 233); 10 mg/kg; s.c • All doses listed were calculated for the free-base. Drug purity: 95.28%, peptide content: 78.0%. All compounds were administered sub-cutaneously (s.c.) in a volume of 3 ml/kg. The formulation instructions for vehicle control and XG-102 (SEQ ID NO: 233) were as follows: • First, XG-102 (SEQ ID NO: 233) was dissolved in the vehicle. The formulations (concentrations of 0.33 and 3.3 mg/ml, corresponding to the doses of 1 and 10 mg/kg, respectively) were prepared according to the procedure detailed below. Concentrations were calculated and expressed taking into account test items purity and peptide content (multiplier coefficient was 1.346). • Preparation of a stock solution: the freeze-dried test compound XG-102 (SEQ ID NO: 233) is thawed for one hour minimum and prepared as a stock solution in the vehicle at 1 mM (corresponding to 3.823 mg/mL). Aliquots are prepared for each treatment day and stored at approximately −80° C. Dilutions of this stock solution to the required concentrations are performed on each treatment day; • Storage of the stock solution: at approximately −80° C.; • Storage of the diluted preparations: at room temperature for 24 hours maximum. • Prior to solubilisation, the powder was stored at −20° C. The stability of the stock solution is 3 months at approximately −80° C.; the stability of the diluted formulations for animal dosing is 24 hours at room temperature. Unused diluted material could be stored for up to 7 days if kept at 4-8° C.
# c) Experimental Procedure • Following 8 days of acclimatization the mice were treated daily at 08.00 AM for 21 days by SC dosing 8 hours prior to lights out at 04.00 PM according to the outline groups. […] Mice were stratified into two sub-teams of n=6-7 and subsequently the metabolic characterisation were performed on study days 71-72. • iii) Adipokine Panel • Groups 1+3: On three occasions (study days 57, 66 and 108) blood was collected from the tail vein using EDTA coated hematocrite tubes (100 μl). Following centrifugation of blood the plasma was collected and stored at −20° C. until measurement. Then, the following panel of adipokines/cytokines was determined using Luminex based 7-plex: leptin, resistin, MCP-1, PAI-1, TNF, insulin and interleukin-6 (IL-6). • iv) Termination • Groups 1+3 (day 111): The following organs were excised and weighed:
# inguinal subcutaneous fat, epididymal fat, retroperitoneal fat, brain, liver, kidney, spleen and heart. All organs described above were samples in 4% PFA for possible future histo-pathological examination. Also, pancreas (en bloc) was sampled for possible stereological and imunohistochemical analysis, and eyes were sampled for possible later analysis of retinopathy. Group 2 (day 28): No tissues or plasma were collected.
substance,measurement,setting,value
dqsrpvqpflnIttprkprpprrrqrrkkrg (DQSRPVQPFLNLTTPRKPRPPRRRQRRKKRG; not fully specified (some residues); printed as dqsrpvqpflnIttprkprpprrrqrrkkrg) [XG-102],tissue distribution (accumulation),[1],"in the liver, spleen, and bone marrow predominantly"
same,IL-1 induced apoptosis,[2],decreased IL-1 induced apoptosis to a similar extent as L-TAT-IB peptides
same,body weight vs vehicle,"[3]; 1 mg/kg, 28 days of dosing",no effect
same,fasting blood glucose vs vehicle,"[3]; 1 mg/kg, 28 days of dosing",no effect
same,dosing time until blood glucose effect evident,[3]; 10 mg/kg,14 days
same,fasting blood glucose plateau,[3]; 10 mg/kg,approximately 5 mmol/L
same,fasting blood glucose vs vehicle,"[3]; 10 mg/kg s.c. daily for 21 days, wash-out to day 111",clear and significant (p<0.001) decrease
same,"tissue weight of brain, spleen and heart","[3]; 10 mg/kg, day 111",no significant effects
same,tissue weight of fat pads at termination,"[3]; 10 mg/kg, day 111",a significant decrease of epididymal (p<0.05) and retroperitoneal (p<0.01) fat mass
same,tissue weight of kidney and liver,"[3]; 10 mg/kg, day 111",a significant decrease of kidney (p<0.05) and liver (p<0.01) mass
same,body weight vs vehicle,"[3]; 10 mg/kg, from day 28 to day 111",clear and significant (p<0.001) prevention of body weight increase
same,general observations: sedation,[3]; acute dosing period,no signs of sedation
same,reaction of subcutaneous tissue at injection site,[3]; group B (1 mg/kg s.c. daily),mild nodular fibrosis was observed
same,reaction of subcutaneous tissue at injection site,"[3]; high dose (10 mg/kg s.c. daily), after approximately two weeks",nodular fibrosis was observed in the subcutaneous tissue
